Measurements taken from patent US20110269759A1, “PYRIMIDINE COMPOUNDS AS DELTA OPIOID RECEPTOR MODULATORS” (priority 2009, published 2011).
pEC50, pKi: −log10 of the molar value. Read-outs that look alike come from different tables or passages of the source.

Key:
Delta Opioid Receptor = molecular target: T1, Delta Opioid Receptor (Rattus norvegicus, UniProt P33533); experiment: Rat brain delta opioid receptor binding assay ([3H]DPDPE or [3H]naltrindole)
T1 construct: the forebrains were homogenized in Tris buffer in a Teflon®-glass homogenizer; from tissue; host or cells: forebrain of male Wistar rats, particulate membrane preparation

Mu Opioid Receptor = molecular target: T2, Mu Opioid Receptor (Rattus norvegicus, UniProt P33535); experiment: Rat brain mu opioid receptor binding assay ([3H]DAMGO)
T2 construct: the forebrains were homogenized in Tris buffer in a Teflon®-glass homogenizer; from tissue; host or cells: forebrain of male Wistar rats, particulate membrane preparation

δ-opioid receptor = δ-opioid receptor (Mus musculus, UniProt P32300); experiment: [35S]GTPγS δ-opioid receptor functional assay (EC50, relative efficacy, % inhibition); assay type: biochemical; design: NG108-15 cell membranes were purchased from Applied Cell Sciences (Rockville, Md.); conditions: for inhibition at 10 µM: read-out: GTPγS δ-opioid receptor % Inh @10 μM
[1] = rat forebrain membranes, ~4 nM [3H]DPDPE, read-out: δ-binding (DPDPE ligand) Ki
[2] = rat forebrain membranes, ~0.8 nM [3H]DAMGO, read-out: μ-binding Ki
[3] = rat forebrain membranes, 0.25 nM [3H]naltrindole, read-out: δ-binding (Naltrindole ligand) Ki

δ-opioid receptor, sequence (P32300 whole entry): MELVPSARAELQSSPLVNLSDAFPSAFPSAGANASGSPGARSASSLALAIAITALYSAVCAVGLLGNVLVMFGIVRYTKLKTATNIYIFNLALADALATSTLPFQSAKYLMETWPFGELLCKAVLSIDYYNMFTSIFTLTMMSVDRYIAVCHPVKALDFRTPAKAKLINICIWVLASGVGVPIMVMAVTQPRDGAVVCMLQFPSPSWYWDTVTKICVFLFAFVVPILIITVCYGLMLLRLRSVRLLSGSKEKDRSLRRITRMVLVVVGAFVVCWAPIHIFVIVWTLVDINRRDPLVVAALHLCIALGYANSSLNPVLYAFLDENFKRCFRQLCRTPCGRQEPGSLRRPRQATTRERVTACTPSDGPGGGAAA
T2 sequence (P33535 whole entry): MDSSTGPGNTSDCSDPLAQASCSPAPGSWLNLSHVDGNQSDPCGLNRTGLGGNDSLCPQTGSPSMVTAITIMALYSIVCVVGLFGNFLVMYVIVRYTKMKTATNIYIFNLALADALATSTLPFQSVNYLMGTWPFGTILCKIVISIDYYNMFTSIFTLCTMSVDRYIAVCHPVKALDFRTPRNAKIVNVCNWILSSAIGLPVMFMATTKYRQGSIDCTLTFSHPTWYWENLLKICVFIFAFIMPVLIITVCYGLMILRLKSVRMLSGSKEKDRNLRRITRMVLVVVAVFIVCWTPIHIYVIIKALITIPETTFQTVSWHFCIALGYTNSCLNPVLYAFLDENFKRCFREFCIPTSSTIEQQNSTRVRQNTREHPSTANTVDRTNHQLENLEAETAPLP
T1 sequence (P33533 whole entry): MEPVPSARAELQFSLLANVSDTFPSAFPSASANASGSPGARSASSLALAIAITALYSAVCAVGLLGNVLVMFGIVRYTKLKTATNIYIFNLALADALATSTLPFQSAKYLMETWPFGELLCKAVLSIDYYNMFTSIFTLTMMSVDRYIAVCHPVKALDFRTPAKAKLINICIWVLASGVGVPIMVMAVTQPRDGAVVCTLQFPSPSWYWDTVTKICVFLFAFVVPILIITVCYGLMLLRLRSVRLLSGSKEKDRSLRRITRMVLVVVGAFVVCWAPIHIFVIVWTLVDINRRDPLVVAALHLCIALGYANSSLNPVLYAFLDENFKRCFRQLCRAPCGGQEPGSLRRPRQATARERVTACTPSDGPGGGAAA

SMILES | pKi (Mu Opioid Receptor; [2]) | pKi (Delta Opioid Receptor; [3]) | further results
COc1ccc(Oc2ccc(NC3CCNCC3)c(Oc3ccc(OC)cc3)c2)cc1 [Cpd 56] | < 5.00 | – | pKi (Delta Opioid Receptor; [1]): 5.76
c1ccc(Oc2cc(-c3ccccc3)ccc2NC[C@@H]2CCCN2)cc1 [Cpd 14] | – | 6.95 | –
CCN(CC)C(=O)c1cccc(Oc2cc(-c3ccccc3)ccc2NC[C@@H]2CCCN2)c1 [Cpd 34] | – | 6.51 | –
COc1ccc(Oc2ccc(NC3CCCC(N)C3)c(Oc3ccc(OC)cc3)c2)cc1 (stereo not drawn) [Cpd 62] | – | – | pEC50 (δ-opioid receptor): 6.42; inhibition at 10 µM (δ-opioid receptor): 1.73%; pKi (Delta Opioid Receptor): 7.39; pKi (Mu Opioid Receptor): 5.78
CNCCN(CCNC)c1ccc(Oc2ccc(OC)cc2)cc1Oc1ccc(OC)cc1 [Cpd 64, N-[2,4-Bis-(4-methoxy-phenoxy)-phenyl]-N′-methyl-N-(2-methylamino-ethyl)-ethane-1,2-diamine] | < 5.00 | – | pKi (Delta Opioid Receptor; [1]): 5.81
COc1ccc(Oc2cc(-c3ccccc3)ccc2NC2CCNCC2)cc1 [Cpd 23] | < 5.00 | 6.34 | –
COc1ccc(CCc2ccc(NC[C@@H]3CCCN3)c(Oc3ccc(OC)cc3)c2)cc1 [Cpd 3, (S)-{2-(4-Methoxy-phenoxy)-4-[2-(4-methoxy-phenyl)-ethyl]-phenyl}-pyrrolidin-2-ylmethyl-amine] | < 5.00 | 6.92 | –
Clc1ccc(Oc2cc(-c3ccccc3)ccc2NC[C@@H]2CCCN2)c(Cl)c1 [Cpd 22] | – | 6.16 | –
Clc1cccc(Cl)c1Oc1cc(-c2ccccc2)ccc1NC[C@@H]1CCCN1 [Cpd 18] | – | 6.97 | pEC50 (δ-opioid receptor): 5.98; GTPγS δ-opioid receptor Rel Efficacy (δ-opioid receptor): 0.763; inhibition at 10 µM (δ-opioid receptor): 23.4%
Fc1ccc(Oc2cc(-c3ccccc3)ccc2NC[C@@H]2CCCN2)cc1 [Cpd 16] | – | 6.38 | –
NC(=O)c1ccc(Oc2cc(-c3ccccc3)ccc2NC[C@@H]2CCCN2)cc1 [Cpd 29, (S)-4-{4-[(Pyrrolidin-2-ylmethyl)-amino]-biphenyl-3-yloxy}-benzamide] | < 5.00 | 6.83 | –
COc1ccc(Oc2cc(CCc3ccc(F)cc3)ccc2NC[C@@H]2CCCN2)cc1 [Cpd 6] | – | 6.17 | –
O=C(O)c1cccc(Oc2cc(-c3ccccc3)ccc2NC[C@@H]2CCCN2)c1 [Cpd 32] | – | 5.57 | –
CNCCNc1ccc(-c2ccccc2)cc1Oc1ccc(OC)cc1 [Cpd 19] | < 5.00 | 6.72 | –
N#Cc1ccc(Oc2cc(-c3ccccc3)ccc2NC[C@@H]2CCCN2)cc1 [Cpd 12, (S)-4-{4-[(Pyrrolidin-2-ylmethyl)-amino]-biphenyl-3-yloxy}-benzonitrile] | < 5.00 | 6.00 | –
COc1cccc(Oc2cc(-c3ccccc3)ccc2NC[C@@H]2CCCN2)c1 [Cpd 15] | – | 6.54 | –
COc1ccc(Oc2cc(CCc3cccc(F)c3)ccc2NC[C@@H]2CCCN2)cc1 [Cpd 7] | – | 6.64 | –
CNCCNc1ccc(Oc2ccc(OC)cc2)cc1Oc1ccc(OC)cc1 [Cpd 63, N-[2,4-Bis-(4-methoxy-phenoxy)-phenyl]-N′-methyl-ethane-1,2-diamine] | – | – | inhibition at 10 µM (δ-opioid receptor): 26%; pKi (Delta Opioid Receptor): 7.62; pKi (Mu Opioid Receptor; read-out: μ-binding Ki): < 5.00
COc1ccc(Oc2ccc(NC3CN4CCC3CC4)c(Oc3ccc(OC)cc3)c2)cc1 (stereo not drawn) [Cpd 60] | < 5.00 | – | pKi (Delta Opioid Receptor; [1]): 6.80
COc1ccc(Oc2cc(-c3ccccc3)ccc2N2CCNCC2)cc1 [Cpd 46, 1-[3-(4-Methoxy-phenoxy)biphenyl-4-yl]piperazine] | – | – | pKi (Delta Opioid Receptor): 7.10; pKi (Mu Opioid Receptor; read-out: μ-binding Ki): < 5.00
CCN(CC)C(=O)CCc1ccc(NC[C@@H]2CCCN2)c(Oc2ccc(OC)cc2)c1 [Cpd 2, N,N-Diethyl-3-[3-(4-methoxyphenoxy)-4-{[(2S)-pyrrolidin-2-ylmethyl]amino}phenyl]propanamide] | < 4.00 | 7.58 | GTPγS δ-opioid receptor Rel Efficacy (δ-opioid receptor): 0.8333; inhibition at 10 µM (δ-opioid receptor): 22.8%; pEC50 (δ-opioid receptor; read-out: GTPγS δ-opioid receptor EC50): 7.41
N#Cc1cccc(Oc2cc(-c3ccccc3)ccc2NC[C@@H]2CCCN2)c1 [Cpd 13] | – | 6.40 | –
Oc1ccc(Oc2cc(-c3cccnc3)ccc2NC[C@@H]2CCCN2)cc1 [Cpd 45, (S)-4-{5-Pyridin-3-yl-2-[(pyrrolidin-2-ylmethyl)-amino]-phenoxy}-phenol] | – | – | pEC50 (δ-opioid receptor): 7.39; GTPγS δ-opioid receptor Rel Efficacy (δ-opioid receptor): 0.627; inhibition at 10 µM (δ-opioid receptor): 35.6%; pKi (Delta Opioid Receptor): 8.27; pKi (Mu Opioid Receptor): 5.35
FC(F)(F)Oc1ccc(Oc2cc(-c3ccccc3)ccc2NC[C@@H]2CCCN2)cc1 [Cpd 17] | – | 5.83 | –
COc1ccc(Oc2cc(-c3ccoc3)ccc2NC[C@@H]2CCCN2)cc1 [Cpd 40] | – | 6.69 | –
COC(=O)c1cccc(Oc2cc(-c3ccccc3)ccc2NC[C@@H]2CCCN2)c1 [Cpd 21] | – | 6.05 | –
